Test results reported in patent US10981932B2, “Macrocyclic indole derivatives” (Bayer Aktiengesellschaft, priority 2016, dated 2021).
Where a name gives a salt, the structure may show the parent alone.

Key:
MCL-1 = MCL-1 (Homo sapiens, UniProt Q07820); assay: Protein-protein interaction assay MCL-1/Noxa BH3 peptide (MCL-1 assay), TR-FRET; type: binding; conditions: MBP-MCL-1 / Noxa BH3-derived peptide, median
Method in brief: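 Steady-state competition, MCL-1/Noxa BH3, TR-FRET readout; 1 nM MBP-MCL-1, 11-point dose series 0.1 nM–20 μM; overnight 4 °C equilibration; 4-parameter IC50.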

SUDHL5 [1] = assay: Induction of caspase-3/7 activity (Caspase-Glo 3/7), SUDHL5; type: cell-based; conditions: caspase-3/7 induction, SUDHL5 cells, 3 h treatment; median
Method in brief: (§1)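 A 3 h, 37 °C compound incubation precedes the Caspase-Glo 3/7 read. After subtracting medium-only signal, EC50s are fitted against the reference compound's maximal caspase induction.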

SUDHL10 [2] = assay: Induction of caspase-3/7 activity (Caspase-Glo 3/7), SUDHL10; type: cell-based; conditions: caspase-3/7 induction, SUDHL10 cells, 3 h treatment; median
Method in brief: as §1

SUDHL5 [3] = assay: Anti-proliferative effect (CellTiter-Glo, 72 h), SUDHL5; type: cell-based; conditions: SUDHL5 cells, antiproliferation, 72 h incubation, median, read-out: Antiproli SUDHL5 [M] (median)
Method in brief: (§2)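 Endpoint: CellTiter-Glo luminescence, 10 min after reagent addition. Treatment ran 72 h at 37 °C, humidified. Growth was referenced to a separately plated day 0 plate.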

SUDHL10 [4] = assay: Anti-proliferative effect (CellTiter-Glo, 72 h), SUDHL10; type: cell-based; conditions: SUDHL10 cells, antiproliferation, 72 h incubation, median, read-out: Antiproli SUDHL10 [M] (median)
Method in brief: as §2

A2780 = assay: Anti-proliferative effect (CellTiter-Glo, 72 h), A2780; type: cell-based; conditions: A2780 cells, median, read-out: IC50 antiproliferation assay A2780 [M] (median)
Method in brief: as §2

SUDHL5 [5] = assay: Induction of cytotoxicity (CellTiter-Glo, 5 h), SUDHL5; conditions: read-out: Cytotox SUDHL5 [M] (median); SUDHL5 cells, cytotoxicity induction, CellTiter-Glo, 5 h incubation, median
Method: Therefore, cytotoxicity assays were run in parallel in SUDHL5 and SUDHL10 cells.
The different cell lines were plated in culture medium (RPMI 1640 [GIBCO #22400-089]supplemented with 10% Fetal Bovine Serum) at a density of 3.300 cells in 30 μl/well in a sterile, solid black, flat bottom, polystyrene, TC-treated 384-well microplate (Corning #3571) using Multidrop Combi Reagent Dispenser. As a control, medium without cells was also added to the plate. Cells were incubated in a humidified incubator at 37° C. overnight. On the next day, the cells were treated with compounds (stock solution, 10 mM in DMSO) using the HP D300 Digital Dispenser in a concentration range of 3.3×10e-5 M (33 μM) to 5×10e-9 M (5 nM) in a single-dot curve with at least 16 dilutions and a DMSO concentration of 0.33%. Rim wells were excluded. The cells were incubated for 5 h hours in a humidified incubator at 37° C. After this incubation, 30 μl of CellTiter-Glo@ Luminescent Cell Viability reagent (Promega, G7573) was added to each well using the Multidrop Combi Reagent Dispenser, followed by 15 min incubation on a shaker at room temperature. Finally, luminescence was read at 0.1 ms, with a gain of 3000 using the PHERAstar FS microplate reader (BMG Labtech).
The Bella DRC Master Sheet was used to calculate IC50s, with fixed CI=0 and C0=1.

SUDHL10 [6] = assay: Induction of cytotoxicity (CellTiter-Glo, 5 h), SUDHL10; conditions: read-out: Cytotox SUDHL10 [M] (median); SUDHL10 cells, cytotoxicity induction, CellTiter-Glo, 5 h incubation, median

MCL-1, sequence (Q07820 whole entry): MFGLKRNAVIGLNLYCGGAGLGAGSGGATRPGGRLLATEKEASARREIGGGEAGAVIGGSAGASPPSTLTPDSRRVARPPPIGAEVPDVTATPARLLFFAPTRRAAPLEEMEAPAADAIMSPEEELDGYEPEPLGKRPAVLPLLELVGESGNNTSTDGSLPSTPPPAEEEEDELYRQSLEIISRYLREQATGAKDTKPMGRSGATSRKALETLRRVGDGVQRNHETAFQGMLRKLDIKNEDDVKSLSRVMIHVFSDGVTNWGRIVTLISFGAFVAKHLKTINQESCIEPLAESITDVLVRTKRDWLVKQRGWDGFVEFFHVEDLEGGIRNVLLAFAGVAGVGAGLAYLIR

Compound: Cc1c2c(nn1C)CN(C)CCCCn1c(C(=O)O)c(CCCOc3cccc4ccccc34)c3cccc-2c31 (single isomer, unassigned; enantiomer 2) [Example 069, 2,3,14-trimethyl-7-[3-(naphthalen-1-yloxy)propyl]-10,11,12,13,14,15-hexahydro-2H-pyrazolo[3′,4′:8,9][1,6]diazacycloundecino[10,11,1-hi]indole-8-carboxylic Acid (Enantiomer 2)]
- IC50 (MCL-1): 0.162 µM
- EC50 (SUDHL5 [1]): > 33 µM
- EC50 (SUDHL10 [2]): > 33 µM
- IC50 (SUDHL5 [3]): > 3.3e-05 M
- IC50 (SUDHL10 [4]): 2.11e-05 M
- IC50 (A2780): > 3.3e-05 M
- IC50 (SUDHL5 [5]): > 3.3e-05 M
- IC50 (SUDHL10 [6]): > 3.3e-05 M

Compound: Cc1ccc2c(CCCOc3cccc4ccccc34)c(C(=O)O)n3c2c1-c1c(nn(C)c1C)COCCCC3 (single isomer, unassigned; enantiomer 2) [Example 077, 2,3,4-trimethyl-7-[3-(naphthalen-1-yloxy)propyl]-2,10,11,12,13,15-hexahydropyrazolo[4′,3′:9,10][1,6]oxazacycloundecino[8,7,6-hi]indole-8-carboxylic Acid (Enantiomer 2)]
- IC50 (MCL-1): 0.0342 µM
- EC50 (SUDHL5 [1]): > 33 µM
- EC50 (SUDHL10 [2]): > 33 µM
- IC50 (SUDHL5 [3]): 2.73e-05 M
- IC50 (SUDHL10 [4]): 1.17e-05 M
- IC50 (A2780): 2.06e-05 M
- IC50 (SUDHL5 [5]): > 3.3e-05 M
- IC50 (SUDHL10 [6]): > 3.3e-05 M

Compound: CCn1nc2c(c1C1CC1)-c1cccc3c(CCCOc4cccc5ccccc45)c(C(=O)O)n(c13)CCCCOC2 (single isomer, unassigned; enantiomer 2) [Example 083, 3-cyclopropyl-2-ethyl-7-[3-(naphthalen-1-yloxy)propyl]-2,10,11,12,13,15-hexahydropyrazolo[4′,3′:9,10][1,6]oxazacycloundecino[8,7,6-hi]indole-8-carboxylic acid-N-ethylethanamine Salt (Enantiomer 2)]
- IC50 (MCL-1): 0.172 µM
- EC50 (SUDHL5 [1]): > 33 µM
- EC50 (SUDHL10 [2]): > 33 µM
- IC50 (SUDHL5 [3]): 2.68e-05 M
- IC50 (SUDHL10 [4]): 1.47e-05 M
- IC50 (A2780): 1.38e-05 M
- IC50 (SUDHL5 [5]): > 3.3e-05 M
- IC50 (SUDHL10 [6]): > 3.3e-05 M

Compound: COCCn1nc2c(c1C1CC1)-c1cccc3c(CCCOc4cccc5ccccc45)c(C(=O)O)n(c13)CCCCOC2 (single isomer, unassigned; enantiomer 2) [Example 086, 3-Cyclopropyl-2-(2-methoxyethyl)-7-[3-(naphthalen-1-yloxy)propyl]-2,10,11,12,13,15-hexahydropyrazolo[4′3′:9,10][1,6]oxazacycloundecino[8,7,6-hi]indole-carboxylic acid-N-ethylethanamine Salt (Enantiomer 2)]
- IC50 (MCL-1): 0.0728 µM
- EC50 (SUDHL5 [1]): > 33 µM
- EC50 (SUDHL10 [2]): > 33 µM
- IC50 (SUDHL5 [3]): 1.72e-05 M
- IC50 (SUDHL10 [4]): 7e-06 M
- IC50 (A2780): 1.36e-05 M
- IC50 (SUDHL5 [5]): 3.15e-05 M
- IC50 (SUDHL10 [6]): > 3.3e-05 M

Compound: Cc1c2c(nn1C1CC1)COCCCCn1c(C(=O)O)c(CCCOc3cccc4ccccc34)c3cccc-2c31 (single isomer, unassigned; enantiomer 2) [Example 094, 2-cyclopropyl-3-methyl-7-[3-(naphthalen-1-yloxy)propyl]-2,10,11,12,13,15-hexahydropyrazolo[4′,3′:9,10][1,6]oxazacycloundecino[8,7,6-hi]indole-8-carboxylic acid-N-ethylethanamine Salt (Enantiomer 2)]
- IC50 (MCL-1): 0.12 µM
- EC50 (SUDHL5 [1]): > 33 µM
- EC50 (SUDHL10 [2]): > 33 µM
- IC50 (SUDHL5 [3]): 3.11e-05 M
- IC50 (SUDHL10 [4]): 1.64e-05 M
- IC50 (A2780): 2.58e-05 M
- IC50 (SUDHL5 [5]): > 3.3e-05 M
- IC50 (SUDHL10 [6]): > 3.3e-05 M

Compound: Cc1nn(CCN2CCOCC2)c2c1-c1cccc3c(CCCOc4cccc5ccccc45)c(C(=O)O)n(c13)CCCCOC2 (single isomer, unassigned; enantiomer 2) [Example 097, 3-methyl-1-[2-(morpholin-4-yl)ethyl]-7-[3-(naphthalen-1-yloxy)propyl]-1,10,11,12,13,15-hexahydropyrazolo[4′,3′:9,10][1,6]oxazacycloundecino[8,7,6-hi]indole-carboxylic acid-N-ethylethanamine Salt (Enantiomer 2)]
- IC50 (MCL-1): 0.0589 µM
- EC50 (SUDHL5 [1]): > 33 µM
- EC50 (SUDHL10 [2]): > 33 µM
- IC50 (SUDHL5 [3]): 2.25e-05 M
- IC50 (SUDHL10 [4]): 1.21e-05 M
- IC50 (A2780): 2.84e-05 M
- IC50 (SUDHL5 [5]): 3.05e-05 M
- IC50 (SUDHL10 [6]): > 3.3e-05 M

Compound: COCCn1nc(C2CC2)c2c1COCCCCn1c(C(=O)O)c(CCCOc3cccc4ccccc34)c3cccc-2c31 (single isomer, unassigned; enantiomer 2) [Example 104, 3-cyclopropyl-1-(2-methoxyethyl)-7-[3-(naphthalen-1-yloxy)propyl]-1,10,11,12,13,15-hexahydropyrazolo[4′,3′:9,10][1,6]oxazacycloundecino[8,7,6-hi]indole-8-carboxylic acid-N-ethylethanamine Salt (Enantiomer 2)]
- IC50 (MCL-1): 0.106 µM
- EC50 (SUDHL5 [1]): > 33 µM
- EC50 (SUDHL10 [2]): > 33 µM
- IC50 (SUDHL5 [3]): 2e-05 M
- IC50 (SUDHL10 [4]): 1.02e-05 M
- IC50 (A2780): 2.21e-05 M
- IC50 (SUDHL5 [5]): > 3.3e-05 M
- IC50 (SUDHL10 [6]): > 3.3e-05 M

Compound: COCCn1nc2c(c1C)-c1cccc3c(CCCOc4cccc5ccccc45)c(C(=O)O)n(c13)CCCCOC2 (single isomer, unassigned; enantiomer 2) [Example 108, 2-(2-methoxyethyl)-3-methyl-7-[3-(naphthalen-1-yloxy)propyl]-2,10,11,12,13,15-hexahydropyrazolo[4′,3′:9,10][1,6]oxazacycloundecino[8,7,6-hi]indole-8-carboxylic acid-N-ethylethanamine Salt (Enantiomer 2)]
- IC50 (MCL-1): 0.0543 µM
- EC50 (SUDHL5 [1]): > 33 µM
- EC50 (SUDHL10 [2]): > 33 µM
- IC50 (SUDHL5 [3]): 1.51e-05 M
- IC50 (SUDHL10 [4]): 1.17e-05 M
- IC50 (A2780): 1.52e-05 M
- IC50 (SUDHL5 [5]): > 3.3e-05 M
- IC50 (SUDHL10 [6]): > 3.3e-05 M

Compound: Cc1nn(CC(F)(F)F)c2c1-c1cccc3c(CCCOc4cccc5ccccc45)c(C(=O)O)n(c13)CCCCOC2 (single isomer, unassigned; enantiomer 2) [Example 111, 3-methyl-7-[3-(naphthalen-1-yloxy)propyl]-1-(2,2,2-trifluoroethyl)-1,10,11,12,13,15-hexahydropyrazolo[4′,3′:9,10][,6]oxazacycloundecino[8,7,6-hi]indole-8-carboxy ic acid-N-ethylethanamine Salt (Enantiomer 2)]
- IC50 (MCL-1): 0.327 µM
- EC50 (SUDHL5 [1]): > 33 µM
- EC50 (SUDHL10 [2]): > 33 µM
- IC50 (SUDHL5 [3]): > 3.3e-05 M
- IC50 (SUDHL10 [4]): 5.45e-06 M
- IC50 (A2780): 2.61e-05 M
- IC50 (SUDHL5 [5]): > 3.3e-05 M
- IC50 (SUDHL10 [6]): > 3.3e-05 M

Compound: Cn1nc(CN2CCOCC2)c2c1COCC=CCn1c(C(=O)O)c(CCCOc3cccc4ccccc34)c3cccc-2c31 (single isomer, unassigned; enantiomer 2) [Example 134, (E)-1-methyl-3-(morpholin-4-ylmethyl)-7-[3-(naphthalen-1-yloxy)propyl]-1,13,15-tetrahydropyrazolo[4′,3′:9,10][1,6]oxazacycloundecino[8,7,6-hi]indole-8-carboxylic acid-N-ethylethanamine Salt (Enantiomer 2)]
- IC50 (MCL-1): 0.322 µM
- EC50 (SUDHL5 [1]): > 33 µM
- EC50 (SUDHL10 [2]): > 33 µM
- IC50 (SUDHL5 [3]): 2.14e-05 M
- IC50 (SUDHL10 [4]): 1.63e-05 M
- IC50 (A2780): 2.07e-05 M
- IC50 (SUDHL5 [5]): > 3.3e-05 M
- IC50 (SUDHL10 [6]): > 3.3e-05 M

Compound: CCc1c2c(nn1C)CN(C)CCCn1c(C(=O)O)c(CCCOc3cccc4ccccc34)c3ccc(C)c-2c31 (single isomer, unassigned; enantiomer 2) [Example 146, 11-Ethyl-7,10,12-trimethyl-1-[3-(1-naphthyloxy)propyl]-4,5,6,7,8,10-hexahydropyrazolo[3′,4′:7,8][1,5]diazecino[9,10,1-hi]indole-2-carboxylic acid-N-ethylethanamine Salt (Enantiomer 2)]
- IC50 (MCL-1): 0.00901 µM
- EC50 (SUDHL5 [1]): > 33 µM
- EC50 (SUDHL10 [2]): > 33 µM
- IC50 (SUDHL5 [3]): 1.93e-05 M
- IC50 (SUDHL10 [4]): 1.05e-05 M
- IC50 (A2780): 1.37e-05 M
- IC50 (SUDHL5 [5]): 1.66e-05 M
- IC50 (SUDHL10 [6]): 2.67e-05 M

Compound: Cn1nc(CCN2CCOCC2)c2c1COCCCCn1c(C(=O)O)c(CCCOc3cccc4ccccc34)c3cccc-2c31 (single isomer, unassigned; enantiomer 2) [Example 152, 1-methyl-3-(2-(morpholin-4-yl)ethyl-7-[3-(naphthalen-1-yloxy)propyl]-11,10,11,12,13,15-hexahydropyrazolo[4′,3′:9,10][1,6]oxazacycloundecino[8,7,6-hi]indole-8-carboxylic acid-N-ethylethanamine Salt (Enantiomer 2)]
- IC50 (MCL-1): 0.379 µM
- EC50 (SUDHL5 [1]): > 33 µM
- EC50 (SUDHL10 [2]): > 33 µM
- IC50 (SUDHL5 [3]): > 3.3e-05 M
- IC50 (SUDHL10 [4]): 1.76e-05 M
- IC50 (A2780): > 3.3e-05 M
- IC50 (SUDHL5 [5]): > 3.3e-05 M
- IC50 (SUDHL10 [6]): > 3.3e-05 M
